Literature values as cited in patent US9827315B2, “Compositions of pharmaceutical actives containing diethylene glycol monoethyl ether or other alkyl derivatives” (THEMIS MEDICARE LIMITED, priority 2013, dated 2017).

Conditions: cited from earlier work

Molecule	Solubility in water (descriptive)	also measured
C#C[C@]1(OC(=O)CCCCCC)CC[C@H]2[C@@H]3CCC4=CC(=O)CC[C@@H]4[C@H]3CC[C@@]21C [Norethisterone enantate, 17alpha-Ethynyl-19-nortestosterone 17-heptanoate]	practically insoluble	–
CN1C(C(=O)Nc2ccccn2)=C(O)c2sc(Cl)cc2S1(=O)=O [Lornoxicam, (3E)-6-chloro-3-[hydroxy(pyridin-2-ylamino)methylene]-2-methyl-2,3-dihydro-4H-thieno[2,3-e][1,2]thiazin-4-one 1,1-dioxide]	hardly soluble	–
CC(=O)O[C@]1(C(C)=O)CC[C@H]2[C@@H]3C[C@H](C)C4=CC(=O)CC[C@]4(C)[C@H]3CC[C@@]21C [MPA, 17α-hydroxy-6α-methylpregn-4-ene-3,20-dione acetate]	insoluble	–
CCC(C)n1ncn(-c2ccc(N3CCN(c4ccc(OC[C@H]5CO[C@](Cn6cncn6)(c6ccc(Cl)cc6Cl)O5)cc4)CC3)cc2)c1=O (mixture of isomers) [Itraconazole]	Soluble in organic solvents such as DMSO and dimethyl formamide. Insoluble in water.	–
CCN(CC)CCOC(=O)C1(C2CCCCC2)CCCCC1 [Dicyclomine Hydrocloride, Dicyclomine]	soluble	–
CCCC(=O)OCOC(=O)C1=C(C)NC(C)=C(C(=O)OC)[C@H]1c1cccc(Cl)c1Cl [Clevidipine, O3-(butanoyloxymethyl) O5-methyl (4R)-4-(2,3-dichlorophenyl)-2,6-dimethyl-1,4-dihydropyridine-3,5dicarboxylate]	practically insoluble	–
Cl.N[C@@H]1CCCCN(c2c(F)cc3c(=O)c(C(=O)O)cn(C4CC4)c3c2Cl)C1 [Besifloxacin]	–	solubility in DMSO: Sparingly soluble in methanol, Sparingly soluble in water (1 mg/mL), DMSO (<1 mg/mL); solubility in water: Sparingly soluble in methanol, Sparingly soluble in water (1 mg/mL), DMSO (<1 mg/mL)
C#C[C@]1(O)CC[C@H]2[C@@H]3CCc4cc(O)ccc4[C@H]3CC[C@@]21C [Ethinyl estradiol, 19-nor-17α-pregna-1,3,5(10)-trien-20-yne-3,17-diol]	practically insoluble	–
(3R,4S,5S,6R,7R,9R,11S,12R,13S,14S)-6-{[(2S,3R,4S,6R) -4-(dimethylamino)-3-hydroxy-6-methyloxan-2-yl]oxy}-14-ethyl-12,13-dihydroxy-4-{[(2R,4S,5S,6S)-5-hydroxy-4-methoxy-4,6-dimethyloxan-2-yl]oxy}-7-methoxy-3,5,7,9,11,13-hexamethyl-1-oxacyclotetradecane-2,10-dione [Azithromycin]	practically insoluble	–
CC(=O)OCC(=O)[C@@]1(O)CC[C@H]2[C@@H]3CCC4=CC(=O)C=C[C@]4(C)[C@H]3[C@@H](O)C[C@@]21C [Prednisolone acetate, 11β,17,21-Trihydroxypregna-1,4-diene-3,20-dione 21-acetate]	practically insoluble	–
C[C@H]1[C@H](OC(=O)CCC(=O)[O-])O[C@@H]2O[C@@]3(C)CC[C@H]4[C@H](C)CC[C@@H]1[C@@]24OO3.[Na+] [sodium Artesunate]	soluble	–
O=C(O)COC(=O)Cc1ccccc1Nc1c(Cl)cccc1Cl [Aceclofenac, 2-[2-[2-[(2,6-dichlorophenyl)amino]phenyl]acetyl]oxyacetic acid]	practically insoluble	–
C=C(c1ccc(C(=O)O)cc1)c1cc2c(cc1C)C(C)(C)CCC2(C)C [Bexarotene]	Insoluble in water and slightly soluble in vegetable oils and ethanol, USP	–
COC(=O)[C@@H]1CC2=CC(=O)CC[C@]2(C)[C@@]23O[C@@H]2C[C@@]2(C)[C@@H](CC[C@@]24CCC(=O)O4)[C@H]13 [Eplerenone, pregn-4-ene-7,21-dicarboxylic acid, 9,11-epoxy-17-hydroxy-3-oxo, γ-lactone, methyl ester (7α, 11α, 17α)]	very slightly soluble	octanol/water partition coefficient (at pH 7.0): approximately 7.1
Cc1ccc(-c2ncc(Cl)cc2-c2ccc(S(C)(=O)=O)cc2)cn1 [Etoricoxib, 5-chloro-6′-methyl-3-[4-(methylsulfonyl)phenyl]-2,3′-bipyridine]	–	solubility in water: about 3.3 mg/L
COC(=O)C1=C(C)NC(C)=C(C(=O)OC2CCN(Cc3ccccc3)C2)[C@H]1c1cccc([N+](=O)[O-])c1.Cl (stereo in doubt) [Barnidipine Hydrochloride, 3-(3R)-1-benzylpyrrolidin-3-yl 5-methyl 2,6-dimethyl-4-(3-nitrophenyl)-1,4-dihydropyridine-3,5-dicarboxylate]	insoluble	–
C[C@H](CS)C(=O)N1CCC[C@H]1C(=O)O [Captopril, (2S)-1-[(2S)-2-methyl-3-sulfanylpropanoyl]pyrrolidine-2-carboxylic acid]	easily soluble	–
CC1=C(C/C=C(\C)CCC[C@H](C)CCC[C@H](C)CCCC(C)C)C(=O)c2ccccc2C1=O [Phytomenadione, 2-methyl-3-phytyl-1,4-naphthoquinone]	insoluble	–
Rimexolone	Very slightly soluble in water; freely soluble in chloroform; soluble in ethyl acetate and in methanol	–
C=CC[C@]1(O)CC[C@H]2[C@@H]3CCC4=CCCC[C@@H]4[C@H]3CC[C@@]21C [Allyoestrenol, (17β)-17-(prop-2-en-1-yl)estr-4-en-17-ol]	practically insoluble	–
OC(Cn1cncn1)(Cn1cncn1)c1ccc(F)cc1F [Fluconazole, 2-(2,4-difluorophenyl)-1,3-bis(1H-1,2,4-triazol-1-yl)propan-2-ol]	very slightly soluble	–
NC(Cc1ccc(N(CCCl)CCCl)cc1)C(=O)O (centres unmarked) [Melphalan]	–	solubility (solvent not given) (at 22° C.): < 0.1 g/100 mL
CC(=O)O[C@]1(C(C)=O)CC[C@H]2C3C[C@H](C)C4=CC(=O)C=CC4(C)[C@@]3(F)[C@@H](O)CC21C (some centres unmarked) [Flurometholone Acetate]	Freely soluble in chloroform and acetone, soluble in ethanol, very slightly soluble in water	–
COCCOC(=O)C1=C(C)NC(C)=C(C(=O)OC(C)C)C1c1cccc([N+](=O)[O-])c1 (centres unmarked) [Nimodipine]	Soluble in methanol. Insoluble in water in beta cyclodextrin	–
Cc1c(OCC(F)(F)F)ccnc1C[S@@+]([O-])c1nc2ccccc2[nH]1 [Dexlansoprazole, (R)-(+)2-([3-methyl-4-(2,2,2-trifluoroethoxy)pyridin-2-yl]methylsulfinyl)-1H-benzo[d]imidazole]	very slightly soluble	–
CCCCCCCCCC(=O)O[C@H]1CC[C@H]2[C@@H]3CCC4=CC(=O)CC[C@@H]4[C@H]3CC[C@]12C [Nandrolone Decoanate, Estr-4-en-3-one,17-[(1-oxodecyl)oxy]-,(17b)-]	practically insoluble	–
(3R,4S,5S,6R,7R,9R,11R,12R,13S,14R)-4-[(2,6-Dideoxy-3-C-methyl-3-O-methyl-a-L-ribo-hexopyranosyl)oxy]-14-ethyl-12,13-dihydroxy-7-methoxy-3,5,7,9,11,13-hexamethyl-6-[[3,4,6-trideoxy-3-(dimethylamino)-b-D-xylo-hexopyranosyl]oxy]oxacyclotetradecane-2,10-dione [Clarithromycin]	insoluble	–
